The values below come from ChEMBL document CHEMBL4715724, “Novel 5-substituted-2-anilinoquinolines with 3-(morpholino or 4-methylpiperazin-1-yl)propoxy moiety as broad spectrum antiproliferative agents: Synthesis, cell based assays and kinase screening” (Bioorg Med Chem Lett, 2016).

Each structure is given as a SMILES string. Where only a bound is given, the exact number is not on record here.

In one data set the test system is CCRF-CEM. The data set is described as follows: cells. As to conditions: Homo sapiens, time 48 hrs. Format: functional.
The next data set has as its system A549. The data set is described as follows: cells. Format: functional. The settings on record: Homo sapiens, time 48 hrs.
A further data set concerns HOP-62. The data set is described as follows: cells. It is filed as functional. The settings on record: Homo sapiens, time 48 hrs.
The test system of another data set is HOP-92. Put plainly: cells. Format: functional. The settings on record: Homo sapiens, time 48 hrs.
A further data set concerns NCI-H322M. The data set is described as follows: cells. Format: functional. As to conditions: Homo sapiens, time 48 hrs.
The next data set has as its system IGROV-1. The data set is described as follows: cells. Format: functional. As to conditions: Homo sapiens, time 48 hrs.
A further data set relates to TK-10. The data set is described as follows: cells. Format: functional. The settings on record: Homo sapiens, time 48 hrs.
The next data set relates to MCF7. The data set is described as follows: cells. Format: functional. The settings on record: Homo sapiens, time 48 hrs.
The subject of another data set is MDA-MB-231. Put plainly: cells. The settings on record: Homo sapiens, time 48 hrs. Format: functional.
Data set [1] can be described thus: Cytotoxicity against human HFF-1 cells assessed as cell growth inhibition at 10 uM by MTT assay relative to control. Format: cell-based. The settings on record: read-out: GI. On the technique in general: Tetrazolium dyes change colour on reduction, which living cells bring about.
In data set [2] the target is Tyrosine-protein kinase JAK2 (Homo sapiens) (UniProt O60674). The data set is described as follows: Inhibition of recombinant C-terminal His6-tagged human JAK2 (808 to end residues) expressed in baculovirus infected Sf21 insect cells at 10 uM relative to control.
Data set [3] deals with Mitogen-activated protein kinase 8 (Homo sapiens) (UniProt P45983). The data set is described as follows: Inhibition of N-terminal His-tagged recombinant full length human JNK1alpha1 expressed in Sf21 cells at 10 uM relative to control.
In data set [4] the target is Vascular endothelial growth factor receptor 2 (Homo sapiens) (UniProt P35968). The data set is described as follows: Inhibition of N-terminal His6-tagged recombinant human KDR (790 to end residues) expressed in baculovirus infected Sf21 cells at 10 uM relative to control.
In data set [5] the target is Platelet-derived growth factor receptor alpha (Homo sapiens) (UniProt P16234). Put plainly: Inhibition of recombinant N-terminal His6-tagged human PDGFRalpha (550 to end residues) expressed in baculovirus infected Sf21 insect cells at 10 uM relative to control.
For data set [6], the target named is Platelet-derived growth factor receptor beta (Homo sapiens) (UniProt P09619). The data set is described as follows: Inhibition of recombinant N-terminal His6-tagged human PDGFRbeta (557 to end residues) expressed in baculovirus infected Sf21 insect cells at 10 uM relative to control.
Data set [7] concerns the target Proto-oncogene tyrosine-protein kinase receptor Ret (Homo sapiens) (UniProt P07949). The data set is described as follows: Inhibition of recombinant N-terminal GST-tagged human RET (658 to end residues) expressed in baculovirus infected Sf21 insect cells at 10 uM relative to control.
Data set [8] concerns the target T1, High affinity nerve growth factor receptor (Homo sapiens, UniProt P04629). Put plainly: Inhibition of recombinant N-terminal His6-tagged human TrkA (440 to end residues) expressed in baculovirus infected Sf21 insect cells at 10 uM relative to control.
Target sequence in this assay (P04629 33-796 limits assumed): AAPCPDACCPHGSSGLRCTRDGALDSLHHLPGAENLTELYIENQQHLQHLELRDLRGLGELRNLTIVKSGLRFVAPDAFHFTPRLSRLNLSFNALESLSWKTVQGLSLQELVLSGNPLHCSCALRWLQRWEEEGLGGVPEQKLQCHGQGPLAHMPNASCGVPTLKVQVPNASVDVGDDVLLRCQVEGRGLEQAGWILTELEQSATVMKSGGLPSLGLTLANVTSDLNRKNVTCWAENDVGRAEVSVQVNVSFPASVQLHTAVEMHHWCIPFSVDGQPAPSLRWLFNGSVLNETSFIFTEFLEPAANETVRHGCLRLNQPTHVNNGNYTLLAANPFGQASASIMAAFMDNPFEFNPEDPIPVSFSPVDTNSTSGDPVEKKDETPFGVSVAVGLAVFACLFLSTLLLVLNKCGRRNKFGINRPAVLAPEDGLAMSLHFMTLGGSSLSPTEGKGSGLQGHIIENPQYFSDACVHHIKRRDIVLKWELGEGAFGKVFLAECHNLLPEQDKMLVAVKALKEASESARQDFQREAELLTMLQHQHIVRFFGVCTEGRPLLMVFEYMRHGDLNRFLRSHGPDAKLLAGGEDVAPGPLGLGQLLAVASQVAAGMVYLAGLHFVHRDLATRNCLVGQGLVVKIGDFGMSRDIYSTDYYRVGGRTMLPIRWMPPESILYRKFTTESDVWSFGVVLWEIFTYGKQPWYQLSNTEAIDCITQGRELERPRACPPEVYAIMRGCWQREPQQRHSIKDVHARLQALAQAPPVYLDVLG
In data set [9] the target is PI3-kinase p110-alpha/p85-alpha (Homo sapiens) (UniProt P27986+P42336). The data set is described as follows: Inhibition of p110 alpha/p85 alpha (unknown origin) at 10 uM relative to control. Format: protein-complex assay.
The target in data set [10] is T1, High affinity nerve growth factor receptor. Put plainly: Inhibition of recombinant N-terminal His6-tagged human TrkA (440 to end residues) expressed in baculovirus infected Sf21 insect cells.
The test system of data set [11] is Panel colon (Carcinoma cell lines). Put plainly: cells. Format: functional. As to conditions: Homo sapiens, time 48 hrs.
Description: Growth inhibition of human Panel colon (Carcinoma cell lines) incubated for 48 hrs by sulforhodamine B assay

Chain of Platelet-derived growth factor receptor alpha (Homo sapiens) (P16234 whole entry): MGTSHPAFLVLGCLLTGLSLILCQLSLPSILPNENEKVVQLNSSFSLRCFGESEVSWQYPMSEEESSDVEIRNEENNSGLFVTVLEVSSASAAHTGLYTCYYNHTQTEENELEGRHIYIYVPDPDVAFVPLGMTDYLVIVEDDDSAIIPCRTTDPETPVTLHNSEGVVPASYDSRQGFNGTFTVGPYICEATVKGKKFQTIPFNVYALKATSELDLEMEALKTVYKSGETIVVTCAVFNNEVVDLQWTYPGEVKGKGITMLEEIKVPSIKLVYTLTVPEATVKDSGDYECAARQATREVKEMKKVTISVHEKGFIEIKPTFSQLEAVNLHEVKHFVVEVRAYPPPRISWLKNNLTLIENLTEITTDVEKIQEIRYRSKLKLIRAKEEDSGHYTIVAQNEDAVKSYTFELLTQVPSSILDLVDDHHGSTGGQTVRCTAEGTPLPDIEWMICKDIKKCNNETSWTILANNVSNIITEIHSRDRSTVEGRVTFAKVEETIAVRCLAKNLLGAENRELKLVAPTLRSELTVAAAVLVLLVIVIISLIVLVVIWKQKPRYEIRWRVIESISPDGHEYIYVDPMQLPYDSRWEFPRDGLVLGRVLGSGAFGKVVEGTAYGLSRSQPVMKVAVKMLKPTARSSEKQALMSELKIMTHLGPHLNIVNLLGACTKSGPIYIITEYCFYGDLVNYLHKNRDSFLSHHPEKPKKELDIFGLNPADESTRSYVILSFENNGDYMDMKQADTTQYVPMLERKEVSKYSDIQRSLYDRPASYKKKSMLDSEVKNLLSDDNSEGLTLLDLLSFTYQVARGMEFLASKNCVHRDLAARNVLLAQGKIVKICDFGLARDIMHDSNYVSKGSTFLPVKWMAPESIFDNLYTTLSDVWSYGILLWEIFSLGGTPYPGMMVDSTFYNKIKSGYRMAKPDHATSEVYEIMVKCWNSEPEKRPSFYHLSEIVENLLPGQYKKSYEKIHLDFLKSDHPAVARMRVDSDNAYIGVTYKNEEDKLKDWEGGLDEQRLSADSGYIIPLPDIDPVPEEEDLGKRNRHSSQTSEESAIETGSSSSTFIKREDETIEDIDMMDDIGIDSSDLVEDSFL
Chain of Vascular endothelial growth factor receptor 2 (Homo sapiens) (P35968 whole entry): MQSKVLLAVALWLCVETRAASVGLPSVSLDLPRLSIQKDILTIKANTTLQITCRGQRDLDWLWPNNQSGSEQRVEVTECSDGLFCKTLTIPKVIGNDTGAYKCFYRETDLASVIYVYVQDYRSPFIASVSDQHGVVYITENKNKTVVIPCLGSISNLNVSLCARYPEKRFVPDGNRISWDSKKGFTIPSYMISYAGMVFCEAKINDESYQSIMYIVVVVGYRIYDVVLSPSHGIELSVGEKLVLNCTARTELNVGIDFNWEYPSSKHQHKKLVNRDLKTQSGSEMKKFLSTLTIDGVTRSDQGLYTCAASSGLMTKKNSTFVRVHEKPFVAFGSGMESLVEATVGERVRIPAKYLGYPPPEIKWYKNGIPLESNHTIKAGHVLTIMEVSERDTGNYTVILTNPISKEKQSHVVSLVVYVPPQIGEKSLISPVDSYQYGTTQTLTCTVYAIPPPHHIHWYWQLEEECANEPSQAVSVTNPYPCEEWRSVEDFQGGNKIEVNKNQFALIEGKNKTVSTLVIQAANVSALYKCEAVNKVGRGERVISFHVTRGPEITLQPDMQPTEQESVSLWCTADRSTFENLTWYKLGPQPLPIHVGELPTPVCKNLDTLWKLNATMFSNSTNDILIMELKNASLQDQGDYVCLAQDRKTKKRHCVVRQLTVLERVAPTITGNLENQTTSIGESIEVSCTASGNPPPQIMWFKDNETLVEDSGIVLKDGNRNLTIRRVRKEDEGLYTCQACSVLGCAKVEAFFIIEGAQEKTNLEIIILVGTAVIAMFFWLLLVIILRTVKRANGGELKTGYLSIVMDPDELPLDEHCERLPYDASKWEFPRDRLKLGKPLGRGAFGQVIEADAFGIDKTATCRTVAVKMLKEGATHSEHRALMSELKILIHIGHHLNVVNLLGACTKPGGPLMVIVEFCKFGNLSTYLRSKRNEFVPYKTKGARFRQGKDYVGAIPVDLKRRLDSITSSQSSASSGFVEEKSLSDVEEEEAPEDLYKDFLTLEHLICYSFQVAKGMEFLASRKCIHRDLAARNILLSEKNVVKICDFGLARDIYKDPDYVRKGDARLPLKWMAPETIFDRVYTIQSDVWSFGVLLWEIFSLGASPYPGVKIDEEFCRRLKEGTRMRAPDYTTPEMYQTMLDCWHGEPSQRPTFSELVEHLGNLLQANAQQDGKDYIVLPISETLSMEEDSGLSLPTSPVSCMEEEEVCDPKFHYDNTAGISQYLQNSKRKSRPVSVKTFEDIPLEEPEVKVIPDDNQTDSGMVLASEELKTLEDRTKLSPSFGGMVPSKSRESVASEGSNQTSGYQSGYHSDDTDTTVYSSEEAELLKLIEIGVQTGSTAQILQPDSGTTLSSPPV
Chain of Tyrosine-protein kinase JAK2 (Homo sapiens) (O60674 whole entry): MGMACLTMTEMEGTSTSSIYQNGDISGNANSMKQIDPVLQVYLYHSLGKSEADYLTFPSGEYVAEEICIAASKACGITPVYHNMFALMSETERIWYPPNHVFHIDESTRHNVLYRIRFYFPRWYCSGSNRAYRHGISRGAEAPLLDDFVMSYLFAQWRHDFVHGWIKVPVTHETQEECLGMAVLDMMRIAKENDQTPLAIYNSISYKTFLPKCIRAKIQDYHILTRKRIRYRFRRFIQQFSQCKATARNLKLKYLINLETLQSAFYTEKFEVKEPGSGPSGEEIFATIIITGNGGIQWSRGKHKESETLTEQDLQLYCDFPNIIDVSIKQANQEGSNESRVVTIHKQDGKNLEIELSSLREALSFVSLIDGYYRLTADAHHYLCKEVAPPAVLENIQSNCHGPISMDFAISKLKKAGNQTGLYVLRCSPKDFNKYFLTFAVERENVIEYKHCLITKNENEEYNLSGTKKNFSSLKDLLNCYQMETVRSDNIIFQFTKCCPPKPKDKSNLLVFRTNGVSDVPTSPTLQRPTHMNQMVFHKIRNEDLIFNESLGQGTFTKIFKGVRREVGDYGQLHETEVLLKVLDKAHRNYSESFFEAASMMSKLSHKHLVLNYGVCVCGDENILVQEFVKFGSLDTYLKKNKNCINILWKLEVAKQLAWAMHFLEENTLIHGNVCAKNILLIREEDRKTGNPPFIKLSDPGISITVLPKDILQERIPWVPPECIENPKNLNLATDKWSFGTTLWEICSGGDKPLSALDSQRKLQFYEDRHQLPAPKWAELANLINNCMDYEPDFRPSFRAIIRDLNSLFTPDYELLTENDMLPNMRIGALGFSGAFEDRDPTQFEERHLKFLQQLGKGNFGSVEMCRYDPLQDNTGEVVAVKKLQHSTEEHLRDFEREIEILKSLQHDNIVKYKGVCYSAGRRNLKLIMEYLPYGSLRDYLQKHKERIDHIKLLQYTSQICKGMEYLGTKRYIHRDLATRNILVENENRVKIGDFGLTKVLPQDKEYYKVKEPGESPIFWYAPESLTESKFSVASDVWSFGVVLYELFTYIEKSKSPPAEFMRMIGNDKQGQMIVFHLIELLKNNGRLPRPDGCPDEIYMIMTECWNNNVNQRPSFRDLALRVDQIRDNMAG
Chain of Mitogen-activated protein kinase 8 (Homo sapiens) (P45983 whole entry): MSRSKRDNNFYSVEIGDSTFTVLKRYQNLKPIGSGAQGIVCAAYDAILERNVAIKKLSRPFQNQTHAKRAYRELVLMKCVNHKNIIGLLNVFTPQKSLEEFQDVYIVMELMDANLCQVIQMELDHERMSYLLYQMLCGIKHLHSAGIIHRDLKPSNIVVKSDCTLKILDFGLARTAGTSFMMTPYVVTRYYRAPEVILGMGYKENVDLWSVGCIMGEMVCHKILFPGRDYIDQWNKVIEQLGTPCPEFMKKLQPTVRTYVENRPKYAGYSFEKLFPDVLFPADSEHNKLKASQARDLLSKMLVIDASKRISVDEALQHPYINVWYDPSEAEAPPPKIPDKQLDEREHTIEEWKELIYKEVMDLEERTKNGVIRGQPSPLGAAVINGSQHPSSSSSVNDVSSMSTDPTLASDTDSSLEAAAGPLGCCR
Description for A549: Growth inhibition of human A549/ATCC cells incubated for 48 hrs by sulforhodamine B assay
Description for CCRF-CEM: Growth inhibition of human CCRF-CEM cells incubated for 48 hrs by sulforhodamine B assay
Description for HOP-62: Growth inhibition of human HOP-62 cells incubated for 48 hrs by sulforhodamine B assay
Description for HOP-92: Growth inhibition of human HOP-92 cells incubated for 48 hrs by sulforhodamine B assay
Description for IGROV-1: Growth inhibition of human IGROV-1 cells incubated for 48 hrs by sulforhodamine B assay
Description for MCF7: Growth inhibition of human MCF7 cells incubated for 48 hrs by sulforhodamine B assay
Description for MDA-MB-231: Growth inhibition of human MDA-MB-231/ATCC cells incubated for 48 hrs by sulforhodamine B assay
Description for NCI-H322M: Growth inhibition of human NCI-H322M cells incubated for 48 hrs by sulforhodamine B assay
Description for TK-10: Growth inhibition of human TK-10 cells incubated for 48 hrs by sulforhodamine B assay

The GI50 is the concentration at which growth is held to half of that of the control. Higher therefore signals lower sensitivity of the cells. By IC50 is commonly meant the concentration that gives 50% inhibition. As a reminder, the TGI is the concentration giving total growth inhibition. Read a low TGI as more potent growth arrest. Consider `CN1CCN(CCCOc2cccc3nc(Nc4ccc(Cl)c(C(F)(F)F)c4)ccc23)CC1`, for which the GI50 amounted to 1210 nM with CCRF-CEM; 1720 nM in the data set on A549; 1700 nM in the data set with HOP-62; 1020 nM in the data set on HOP-92; 1440 nM in the data set on NCI-H322M; 1850 nM with IGROV-1. Moreover, the GI50 with TK-10 is 1800 nM; in the data set with MCF7, 1410 nM; in the data set on MDA-MB-231, 1470 nM; in data set [11], 1580 nM. In addition, the inhibition at 10 µM in data set [1] was found to be 37.1%. The inhibition in [2], in data set [3], in [4], in [5], in [6] and in data set [7] was under 60% throughout. Further, the inhibition was 96% in data set [8] and under 60% in [9]. For the same compound, the IC50 in data set [10] amounted to 2520 nM. For the same compound, the TGI in data set [11] came to 3170 nM. Besides, in data set [11] (read-out: LC50 (the source's name)), the CC50 was 6270 nM.
